Legend:
[1] = Blood plasma level of compound 1 in the rat with and without colestyramine (HPLC-MS/MS); assay type: in vivo; settings: for half-life: male, Lewis, rat, plasma
Method: A selective HPLC-MS/MS method was used for the detection of compound 1. The quantitative determination of compound 1 from the blood plasma was carried out as follows:
A solution of an internal standard, then 0.1 M NaOH solution and 1 ml of diethyl ether were added. The mixture was vigorously shaken and the organic phase was discarded. 0.5 N HCl solution was added to the aqueous phase, and the analyte and the internal standard were extracted with 1 ml of diethyl ether. The organic phase was evaporated and taken up in a 1:1 mixture of acetonitrile and water. 10 μl of this solution was injected into an HPLC unit.
The HPLC unit contained a Lichrospher C-18HD column. Using a flow rate of 1 ml/min, the analyte and the internal standard were eluted using the eluent combination acetonitrile+(ammonium acetate solution [10 mmolar]), 67+33, and then selectively detected by mass spectroscopy (LC-MS/MS analysis). During the analysis of the blood plasma samples, calibration samples were taken.
In order to test foreign substances in identical metabolic situations, compound 1 was given only to animals with adjuvant arthritis. The arthritis was induced according to Example 1. The animal weight was on average 210 g. Each group consisted of 6 male Lewis rats. Blood samples were obtained from the tail.
The influence on the blood plasma level of compound 1 was investigated by means of colestyramine. […] During combination therapy with colestyramine, 1000 mg/kg of colestyramine was administered 4 hours after administration of the compound 1. Control animals received 1% CMC at the appropriate times without any active compound. The influence on the pharmacokinetics of compound 1 by colestyramine was investigated both after single administration and after chronic administration of compound 1 with or without colestyramine. Blood samples were obtained 2, 4, 6, 8, 24 and 48 hours after the last administration of compound 1.
The term “area under the curve” (AUC) is understood as meaning the area under the concentration level of a pharmaceutical substance plotted as a function of time. The AUC reflects the extent to which an organism is exposed to a substance. The term “chronic administration” is understood as meaning an administration of the compound 1 over a period of time which at least leads to constant blood levels of the compound 1. These constant blood levels, referred to as the steady state, are achieved after approximately 4 to 5 half-lives of regular taking.

[2] = test system: adjuvant-induced arthritis; assay: Adjuvant-induced arthritis model, dose-response relationship (Example 1); assay type: in vivo; settings: for Increase in body weight / Reduction in arthritis score / Reduction in paw swelling / Surviving animals: day 21
Text: The dose-response relationship of N-(4-trifluoromethylphenyl)-2-cyano-3-hyroxycrotonamide, hereafter referred to as compound 1, was drawn up in the adjuvant-induced arthritis model (method of Pearson C. M. and Wood F. D.; Arth. Rheum. 2: 44 (1959), and Taurog J. D., Argentieri D. C. et al., Meth. Enzymol. 162: 339 (1988)). The swelling of the paws, the formation of generalized symptoms of arthritis, know as the score index, the increase in the body weight during the experiment, and the survival of the animals were determined.
Compound 1 was administered orally from the start of the experiment onwards up to the end on day 21 in a 1% strength carboxymethlcellulose solution, (CMC). The control groups received corresponding amounts of 1% CMC without the active compound.
Six male Lewis rats having a body weight of approximately 210 g were employed in each experimental group.
Negative numbers indicate the worsening of the respective measurement parameter.
In the adjuvant-induced arthritis model in the rat, autoimmune reactions are observed which correspond to the autoimmune diseases of the rheumatic type in humans.

[3] = chronic administration, 2.5 mg/kg of compound 1
[4] = chronic administration, 2.5 mg/kg of compound 1 and 1000 mg/kg of colestyramine 4 hours later
[5] = single administration, 2.5 mg/kg of compound 1
[6] = single administration, 2.5 mg/kg of compound 1 and 1000 mg/kg of colestyramine 4 hours later

C/C(O)=C(\C#N)C(=O)Nc1ccc(C(F)(F)F)cc1 [compound 1, N-(4-trifluoromethylphenyl)-2-cyano-3-hydroxycrotonamide]
Area under the curve 0-48 hours [1, 3]: 63.58 μg/ml × hr
Maximum blood plasma level [1, 3]: 5.73 µg/mL
Area under the curve 0-48 hours [1, 4]: 37.81 μg/ml × hr
Maximum blood plasma level [1, 4]: 4.66 µg/mL
half-life ([1]; oral, 2.5 mg/kg, chronic administration, 2.5 mg/kg of compound 1): 3.45 h
half-life ([1]; oral, 2.5 mg/kg, single administration, 2.5 mg/kg of compound 1, rats with adjuvant arthritis): 3.85 h
half-life ([1]; oral, chronic administration, 2.5 mg/kg of compound 1 and 1000 mg/kg of colestyramine 4 hours later): 3.47 h
half-life ([1]; oral, single administration, 2.5 mg/kg of compound 1 and 1000 mg/kg of colestyramine 4 hours later): 3.32 h
half-life ([1]; po, 2.5 mg/kg/day, in rats, approximately, orally administered): 4 to 8 h
AUC reduced by administration of colestyramine ([1]; multiple administration): 40%
AUC reduced by administration of colestyramine ([1]; single administration): 30%
Area under the curve 0-48 hours [1, 5]: 141.69 μg/ml × hr
Maximum blood plasma level [1, 5]: 10.15 µg/mL
Area under the curve 0-48 hours [1, 6]: 99.90 μg/ml × hr
Maximum blood plasma level [1, 6]: 9.62 µg/mL
therapeutic action ([2]; 1 mg/kg/day): an action could no longer be determined
Increase in body weight ([2]; 1 mg/kg/day orally): 10%
Reduction in arthritis score ([2]; 1 mg/kg/day orally): −11%
Reduction in paw swelling ([2]; 1 mg/kg/day orally): −9%
Surviving animals ([2]; 1 mg/kg/day orally): 100%
Increase in body weight ([2]; 2.5 mg/kg/day orally): 20%
Reduction in arthritis score ([2]; 2.5 mg/kg/day orally): 70%
Reduction in paw swelling ([2]; 2.5 mg/kg/day orally): 78%
Surviving animals ([2]; 2.5 mg/kg/day orally): 100%
Increase in body weight ([2]; 5 mg/kg/day orally): 37%
Reduction in arthritis score ([2]; 5 mg/kg/day orally): 83%
Reduction in paw swelling ([2]; 5 mg/kg/day orally): 96%
Increase in body weight ([2]; 7.5 mg/kg/day orally): 25%
Reduction in arthritis score ([2]; 7.5 mg/kg/day orally): 87%
Reduction in paw swelling ([2]; 7.5 mg/kg/day orally): 105%
Increase in body weight ([2]; 10 mg/kg/day orally): 11%
Reduction in arthritis score ([2]; 10 mg/kg/day orally): 84%
Reduction in paw swelling ([2]; 10 mg/kg/day orally): 96%
Increase in body weight ([2]; 15 mg/kg/day orally): 8%
Reduction in arthritis score ([2]; 15 mg/kg/day orally): 91%
Reduction in paw swelling ([2]; 15 mg/kg/day orally): 106%
Increase in body weight ([2]; 25 mg/kg/day orally): −2%
Reduction in arthritis score ([2]; 25 mg/kg/day orally): 96%
Reduction in paw swelling ([2]; 25 mg/kg/day orally): 114%
lowest efficacious dose ([2]; orally once daily, adjuvant-induced arthritis, rat): 2.5 mg/kg/day

— patent US6716411B2, “Method for finding nucleotide synthesis inhibitors having fewer side effects” (Aventis Pharma Deustschland GmbH, priority 1999, dated 2004)
